In patent publication US20070254907A1, “COMPOSITIONS AND METHODS FOR CONTROLLING INFESTATION” (HATCHTECH PTY LTD, priority 2003, published 2007):
Like-named read-outs stand apart in the source and are kept apart here.

Legend:
[1] = tested on: proteases in egg shell washings (ESW) of lice eggs; assay: Gelatin substrate SDS-PAGE of lice egg shell washings (ESW) incubated with protease inhibitors; assay type: biochemical, Pediculus humanus humanus
Description: Within 12 hours of hatching 50 body lice eggs (Pediculus humanus humanus) were removed from the hair and placed in a 1 mL eppendorf tube. 20 μL of distilled water was added to the unhatched eggs and the preparation incubated for 30 minutes at 32° C. The 20 μL was recovered, freeze dried and stored at −70° C. This sample was referred to as sample 1. A number of other samples were also collected as described. Sample 2 was collected by removing the unhatched louse eggs from four hairs that were approximately 3 cm long, cutting the hair into 0.5 cm lengths, and placing them into a microfuge tube containing 20 μl of distilled water and incubating at 32° C. for 30 minutes. Sample 3 was collected as for sample 2, but the hair was placed in a tube containing 10 mL of 1% sodium hypochlorite for 1 minute followed by five 1 minute washes in 25 mL of distilled water to remove the sodium hypochlorite before being incubated in a microfuge tube containing 20 μl of distilled water and incubated as for Sample 2. Sample 4 was collected from unhatched eggs which were removed from the hair and washed with 1% sodium hypochlorite and incubated in 20 μl of distilled water in the same manner as the hair in Sample 3. Finally, Sample 5 was collected from eggs that were within 24 hrs of hatching which were washed with 1% sodium hypochlorite, then returned to the incubator at 32° C. until they hatched, the empty egg shells collected 0-2 hrs after egg-hatching, placed in a 1 mL microfuge tube containing 20 μl of distilled water and incubated as for Samples 1-4. For all samples 1-5 the 20 μl of fluid was recovered, freeze-dried and stored at −70° C. The washings recovered from these freshly hatched egg shells are referred to as egg-shell-washings (ESWs). In order to look for the presence of proteases present in these different samples, the freeze-dried samples were resuspended in 15 μL of non-reducing SDS sample buffer, centrifuged at 10,000 g for 2 minutes and the entire 15 μL loaded on to 10% gelatine substrate SDS-PAGE gels. Gels were run at 4° C. for 10 minutes at 10 mA followed by a further 25 minutes at 15 mA per gel. They were then incubated for 2×20 minutes in a 2.5% Triton-X 100 solution followed by a three hour incubation in 0.1M Tris/HCl containing 1 mM CaCl2 pH 8.0. Activity was detected as clear areas on the gel the result of protease activity degrading the gelatine within the gel.
Protease activity in the ESWs from louse eggs was also examined using two-dimensional gel electrophoresis. It was necessary to collect large numbers of freshly hatched egg shells. Following egglaying onto pieces of cloth, adult female lice were removed and the cloth with the eggs washed with 1% sodium hypochlorite as for collection of ESWs. The eggs were then returned to the incubator and permitted to hatch. Typically 100 to 500 hatched egg shells were collected (0-2 hours post hatching), placed in a microfuge tube containing 200 μl of distilled water, incubated and sample treated as described above. For analysis, ESWs were resuspended in rehydration buffer (8 M Urea, 2% 3-[(3-cholamidopropyl) dimethylammonio]-1-propanesulfonate 2% Immobilised pH gradient buffer 3-10 (Amersham Phamacia Biotech, Uppsala, Sweden)) and used to rehydrate 7 cm Immobiline Dry strips pH 3-10 (Amersham Bioscience) overnight. Strips were transferred to the Multiphor II (Pharmacia, Sweden) apparatus, electrophoresed in the first dimension at 200 V for 1 min, increasing to 3,500 V over the next 90 min followed by 65 min at 3,500 V, equilibrated (6 M urea, 30% glycerol, 50 mM Tris pH 8.8 and 2% SDS) and then run on a 10% SDS-PAGE gel containing 0.1% gelatin for the second dimension. The gel was then run and developed as previously described.
10% SDS-PAGE gelatine substrate gels were loaded with freeze dried egg shell washings from 100 lice eggs that had been resuspended in 50 μL of non-reducing sample buffer with samples run at 10 μL per lane. […]

[2] = tested on: head lice egg; assay: Head lice egg hatching, time course; assay type: in vivo, Pediculus humanus capitus; conditions: 10 mM; for inhibition at 10000 µM: Pediculus humanus, 10 minutes, read-out: Percent inhibition of egg hatching relative to the control
Description: Tests were carried out to determine if metal chelating agent and metalloprotease inhibitor 1,10-phenanthroline could inhibit head lice egg (Pediculus humanus capitus) hatching as opposed to body lice. Head lice eggs were obtained by placing groups of both 1-2 adult male and 6-8 adult female head lice in separate wells in a 24 well petri dish containing cotton cloth. The petri dish was transferred to a humid incubator at 32° C., 70% RH for 12 hours to permit the female lice to lay their eggs. After 12 hours, all adult lice were removed from the petri dish wells and a series of time-course experiments conducted. A group of eggs (24 hr old) was treated for 10 minutes with 200 μL of a 10 mM solution of 1,10-phenanthroline. A control (ie no inhibitor treatment) group of eggs was also included. The eggs were removed from the inhibitor, blotted dry on tissue paper, placed at 32° C., 70% RH and left to hatch. A second group of eggs, (48 hours old) were treated as previously described and also left to hatch. This process was repeated at 24 hour intervals on head lice eggs up to 120 hours post laying. This method of assaying inhibitors more closely mirrors the field situation where lice eggs will be at various stages of development on the head and permits the inhibitory effects to be observed on these different stages of the parasite.

[3] = tested on: third stage H. contortus larvae; assay: Survival and L3 to L4 moulting of third stage larvae; assay type: in vivo, Haemonchus contortus
Description: Third stage H. contortus larvae were exposed to varying concentrations of 5,5′-dimethyl-2,2′-dipyridyl and the effects on moulting from L3 to L4 examined. The larvae were either exsheathed (their L2 sheath was removed chemically) or unexsheathed (their L2 sheaths were intact). The larvae were exposed to varying concentrations of 5,5′-dimethyl-2,2′-dipyridyl added to their culture media of DMEM and the effects on larval survival monitored over time. Following a 30 minute incubation at 37° C., greater than 90% of the exsheathed larvae exposed to 1 and 0.5 mM of the compound appeared dead. […] By day six post exposure greater than 90% of the larvae appeared to have died in the treatment groups while the control larvae appeared healthy.

Row | Structure (SMILES) | protease activity of ESW, two dimensional gel electrophoresis ([1]; gel incubated with 10 mM inhibitor) | protease activity of ESW on gelatin SDS-PAGE compared to untreated controls ([1]; gel strips incubated with inhibitor: PMSF 5 mM, 1,10-phenanthroline 10 mM, EDTA 10 mM, pepstatin 5 μM, E-64 10 μM) | inhibition of egg hatching in head lice [2] | inhibition at 10000 µM ([2]; treated day 1 post laying) | inhibition at 10000 µM ([2]; treated day 2 post laying) | inhibition at 10000 µM ([2]; treated day 3 post laying) | inhibition at 10000 µM ([2]; treated day 4 post laying) | inhibition at 10000 µM ([2]; treated day 5 post laying) | appearance of unexsheathed larvae ([3]; 10 μM, up to 6 days post exposure) | exsheathed larvae that appeared dead ([3]; 1 and 0.5 mM in DMEM, 30 minute incubation at 37° C.) | unexsheathed larvae that appeared to have died ([3]; day six post exposure, treatment groups) | effects on unexsheathed larvae compared to control larvae ([3]; up to 3 days post exposure)
1 | c1cnc2c(c1)ccc1cccnc12 [1,10-phenanthroline, reference compound] | general reduction in protease activity in the 25-30 kDa region and a clear reduction in the proteases present around the 50 kDa region and above 75 kDa | reduction in protease activity | significantly inhibit egg hatching in head lice | 100% | 87% | 88% | 100% | 100% | – | – | – | –
2 | Cc1ccc(-c2ccc(C)cn2)nc1 [5,5′-dimethyl-2,2′-dipyridyl] | – | – | – | – | – | – | – | – | larvae appeared normal | greater than 90% | greater than 90% | no adverse effects were observed
